From the Kinase Knowledgebase extract (Sharma et al. 2016)
“And” between values parts separate entries of the source, which are not always exact repeats. Equal values may be shown once.

Columns and labels:
CDK2 (human) [1] = target: CDK2 (human) (UniProt P24941); experiment: Enzyme Assay
CDK2 (human) [2] = target: CDK2 (human) (UniProt P24941); experiment: Enzyme Assay; remark: listed apart in the source
CDK2;CDK1 (human) = CDK2;CDK1 (human) (UniProt P24941); experiment: Cell-Based Assay

SMILES | IC50 (CDK2 (human) [1]) [µM] | also measured
CC(=O)N[C@H]1CC[C@H](Nc2nc(NCc3ccc(-c4ccccc4)nc3)c3ncn(C(C)C)c3n2)CC1 | – | GI50 (CDK2;CDK1 (human); h226): 52 nM
CC(C)n1cnc2c(NCc3ccc(-c4cccc(F)c4)cc3)nc(N[C@H]3CC[C@H](N)CC3)nc21 | – | GI50 (CDK2;CDK1 (human); hela-s3): 50 nM and 30 nM
COC(=O)c1ccc(-c2ccc(CNc3nc(N[C@H]4CC[C@H](NC(C)=O)CC4)nc4c3ncn4C(C)C)cc2)cc1 | > 10 | –
CC(=O)N[C@H]1CC[C@H](Nc2nc(NCc3ccc(-c4ccc(C(=O)O)cc4)cc3)c3ncn(C(C)C)c3n2)CC1 | > 10 | IC50 (CDK2 (human) [2]): > 10 µM
CC(=O)C1CCN(c2nc(NCc3ccc(-c4ccccc4)cc3)c3ncn(C(C)C)c3n2)CC1 | – | GI50 (CDK2;CDK1 (human); hela-s3): 3000 nM and 5000 nM
CC(=O)N[C@H]1CC[C@H](Nc2nc(NCc3ccc(-c4cccc(F)c4)cc3)c3ncn(C(C)C)c3n2)CC1 | – | GI50 (CDK2;CDK1 (human); hela-s3): 70 nM and 200 nM
CC(=O)N[C@H]1CC[C@H](Nc2nc(NCc3ccc(-c4ccc(F)c(Cl)c4)cc3)c3ncn(C(C)C)c3n2)CC1 | > 10 | –
CC(=O)N[C@H]1CC[C@H](Nc2nc(NCc3ccc(-c4ccc(F)cc4)cc3)c3ncn(C(C)C)c3n2)CC1 | > 10 | –

Further lines, with some results ahead:

IC50 (CDK2 (human) [1]) [µM] | SMILES | also measured
> 10 | CC(=O)N[C@H]1CCCC[C@@H]1Nc1nc(NCc2ccc(-c3ccccc3)cc2)c2ncn(C(C)C)c2n1 | IC50 (CDK2 (human) [2]): > 10 µM
> 10 | CC(C)n1cnc2c(NCc3ccc(-c4ccccc4)cc3)nc(N[C@H]3CC[C@H](O)CC3)nc21 | GI50 (CDK2;CDK1 (human); adr-res): 30 nM
> 10 | CC(C)n1cnc2c(NCc3ccc(-c4ccccc4)cc3)nc(N[C@H]3CCCC[C@H]3NC(=O)Nc3ccccc3)nc21 | IC50 (CDK2 (human) [2]): > 10 µM
> 10 | CC(=O)N[C@H]1CC[C@H](Nc2nc(NCc3ccc(-c4ccc(C)cc4)cc3)c3ncn(C(C)C)c3n2)CC1 | –
> 10 | CC[C@H](CO)Nc1nc(NCc2ccc(-c3cccc(NC(C)=O)c3)cc2)c2ncn(C(C)C)c2n1 | –
≥ 10 | CC(=O)N[C@@H](C)CNc1nc(NCc2ccc(-c3ccccc3)cc2)c2ncn(C(C)C)c2n1 | IC50 (CDK2 (human) [2]): > 10 µM
> 10 | CC(=O)N[C@H]1CC[C@H](Nc2nc(NCc3ccc(-c4ccc(Cl)cc4)cc3)c3ncn(C(C)C)c3n2)CC1 | –
> 10 | CC(C)n1cnc2c(NCc3ccc(-c4ccccc4)cc3)nc(NC3(CO)CCCC3)nc21 | –
